Data: ChEMBL document CHEMBL1759989, “Synthesis and evaluation of thiophenyl derivatives as inhibitors of alkaline phosphatase” (Bioorg Med Chem Lett, 2011)
Counter-ions that a name gives are not always drawn.

Experiments:
[1] = Inhibition of pig TNAP at pH 10.4 by UV-visible spectrophotometric assay; parameters: species or system Sus scrofa
[2] = Inhibition of pig TNAP at pH 7.8 by UV-visible spectrophotometric assay; parameters: species or system Sus scrofa

SMILES | IC50 [1] | IC50 [2]
c1cc(-c2cn3ccsc3n2)cs1 | > 800 µM | > 800 µM
c1cc(-c2cn3c(n2)SCC3)cs1 | > 800 µM | > 800 µM
C1=C(c2ccsc2)N2CCN=C2S1 | > 800 µM | > 800 µM
C1=CN2CC(c3ccsc3)N=C2S1 (racemic) | 42 µM | 84 µM
c1cc(C2CN3CCSC3=N2)cs1 (racemic) | 408 µM | 192 µM
C1=CN2CC(c3cccs3)N=C2S1 (racemic) | 331 µM | 260 µM
c1csc(C2CN3CCSC3=N2)c1 (racemic) | > 800 µM | > 800 µM
c1ccc([C@H]2CN3CCSC3=N2)cc1 [LEVAMISOLE HYDROCHLORIDE] | 93 µM | 78 µM
